Laboratory results taken from patent US20170190671A1, “BIS(ARYL)CATECHOL DERIVATIVES AS HERBICIDES” (E I DU PONT DE NEMOURS AND COMPANY, priority 2014, published 2017).

Tests used:
Details in all cases: scale 0 to 100
[1] = test system: Italian ryegrass (Lolium multiflorum); test: Test D preemergence; format: in vivo
In short: (§1)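 Greenhouse herbicide screen. Pre: silt loam, spray at planting. Post: 1–4 leaf, 2–18 cm. Readout: visual % control (0–100) at 14–21 DAT vs controls.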

[2] = test system: winter barley (Hordeum vulgare); test: Test D preemergence; format: in vivo
In short: as §1

[3] = test system: wild radish (Raphanus raphanistrum); test: Test D preemergence; format: in vivo
In short: as §1

[4] = test system: green foxtail (Setaria viridis); test: Test D preemergence; format: in vivo
In short: as §1

[5] = test system: field violet (Viola arvensis); test: Test D preemergence; format: in vivo
In short: as §1

[6] = test system: lambsquarters (Chenopodium album); test: Test D preemergence; format: in vivo
In short: as §1

[7] = test system: windgrass (Apera spica-venti); test: Test D preemergence; format: in vivo
In short: as §1

[8] = test system: winter wheat (Triticum aestivum); test: Test D preemergence; format: in vivo
In short: as §1

[9] = test system: deadnettle (henbit deadnettle, Lamium amplexicaule); test: Test D preemergence; format: in vivo
In short: as §1

[10] = test system: galium (catchweed bedstraw, Galium aparine); test: Test D preemergence; format: in vivo
In short: as §1

[11] = test system: spring barley (Hordeum vulgare); test: Test D preemergence; format: in vivo
In short: as §1

[12] = test system: spring wheat (Triticum aestivum); test: Test D preemergence; format: in vivo
In short: as §1

kochia (Kochia scoparia) = test: Test D preemergence; format: in vivo
In short: as §1

[13] = test system: field poppy (Papaver rhoeas); test: Test D preemergence; format: in vivo
In short: as §1

[14] = test system: chamomile (scentless chamomile, Matricaria inodora); test: Test D preemergence; format: in vivo
In short: as §1

[15] = test system: pigweed (Amaranthus retroflexus); test: Test D preemergence; format: in vivo
In short: as §1

[16] = test system: oilseed rape (Brassica napus); test: Test D preemergence; format: in vivo
In short: as §1

wild oat (Avenafatua) = test: Test D postemergence; format: in vivo, Avena fatua
Source text: Seeds of plant species selected from bluegrass (annual bluegrass, Poa annua), blackgrass (Alopecurus myosuroides), canarygrass (Phalaris minor), chickweed (common chickweed, Stellaria media), cutleaf geranium (Geranium dissectum), galium (catchweed bedstraw, Galium aparine), downy bromegrass (Bromus tectorum), field poppy (Papaver rhoeas), field violet (Viola arvensis), green foxtail (Setaria viridis), deadnettle (henbit deadnettle, Lamium amplexicaule), Italian ryegrass (Lolium multiflorum), kochia (Kochia scoparia), lambsquarters (Chenopodium album), oilseed rape (Brassica napus), pigweed (Amaranthus retroflexus), chamomile (scentless chamomile, Matricaria inodora), Russian thistle (Salsola kali), speedwell (bird's-eye speedwell, Veronica persica), spring barley (Hordeum vulgare), spring wheat (Triticum aestivum), wild buckwheat (Polygonum convolvulus), wild mustard (Sinapis arvensis), wild oat (Avenafatua), wild radish (Raphanus raphanistrum), windgrass (Apera spica-venti), winter barley (Hordeum vulgare), and winter wheat (Triticum aestivum) were planted into a silt loam soil and treated preemergence with test chemicals formulated in a non-phytotoxic solvent mixture which included a surfactant.
At the same time, these species were planted in pots containing Redi-Earth® planting medium (Scotts Company, 14111 Scottslawn Road, Marysville, Ohio 43041) comprising spaghnum peat moss, vermiculite, wetting agent and starter nutrients and treated with postemergence applications of the test chemicals formulated in the same manner. Plants ranged in height from 2 to 18 cm (1- to 4-leaf stage). Treated plants and controls were maintained in a controlled growth environment for 14 to 21 days after which time all species were compared to controls and visually evaluated. Plant response ratings, summarized in Table D, are based on a scale of 0 to 100 where 0 is no effect and 100 is complete control. A dash (-) response means no test result.

Fc1cnc(Oc2c(F)cccc2Oc2ncc(Cl)cn2)nc1 [Compound 23]
Plant response rating, Ryegrass, Italian ([1]; 16 g ai/ha): 5 | Plant response rating, Ryegrass, Italian ([1]; 31 g ai/ha): 10 | Plant response rating, Ryegrass, Italian ([1]; 62 g ai/ha): 35 | Plant response rating, Ryegrass, Italian ([1]; 125 g ai/ha): 75 | Plant response rating, Barley, Winter ([2]; 16 g ai/ha): 0 | Plant response rating, Barley, Winter ([2]; 31 g ai/ha): 0 | Plant response rating, Barley, Winter ([2]; 62 g ai/ha): 30 | Plant response rating, Barley, Winter ([2]; 125 g ai/ha): 70 | Plant response rating, Radish, Wild ([3]; 16 g ai/ha): 25 | Plant response rating, Radish, Wild ([3]; 31 g ai/ha): 70 | Plant response rating, Radish, Wild ([3]; 62 g ai/ha): 90 | Plant response rating, Radish, Wild ([3]; 125 g ai/ha): 100 | Plant response rating, Foxtail, Green ([4]; 16 g ai/ha): 0 | Plant response rating, Foxtail, Green ([4]; 31 g ai/ha): 5 | Plant response rating, Foxtail, Green ([4]; 62 g ai/ha): 55 | Plant response rating, Foxtail, Green ([4]; 125 g ai/ha): 100 | Plant response rating, Field Violet ([5]; 16 g ai/ha): 25 | Plant response rating, Field Violet ([5]; 31 g ai/ha): 25 | Plant response rating, Field Violet ([5]; 62 g ai/ha): 95 | Plant response rating, Field Violet ([5]; 125 g ai/ha): 100 | Plant response rating, Lambsquarters ([6]; 16 g ai/ha): 25 | Plant response rating, Lambsquarters ([6]; 31 g ai/ha): 100 | Plant response rating, Lambsquarters ([6]; 62 g ai/ha): 100 | Plant response rating, Lambsquarters ([6]; 125 g ai/ha): 100 | Plant response rating, Windgrass ([7]; 16 g ai/ha): 20 | Plant response rating, Windgrass ([7]; 31 g ai/ha): 75 | Plant response rating, Windgrass ([7]; 62 g ai/ha): 98 | Plant response rating, Windgrass ([7]; 125 g ai/ha): 100 | Plant response rating, Wheat, Winter ([8]; 16 g ai/ha): 0 | Plant response rating, Wheat, Winter ([8]; 31 g ai/ha): 5 | Plant response rating, Wheat, Winter ([8]; 62 g ai/ha): 10 | Plant response rating, Wheat, Winter ([8]; 125 g ai/ha): 70 | Plant response rating, Deadnettle ([9]; 16 g ai/ha): 15 | Plant response rating, Deadnettle ([9]; 31 g ai/ha): 65 | Plant response rating, Deadnettle ([9]; 62 g ai/ha): 80 | Plant response rating, Deadnettle ([9]; 125 g ai/ha): 95 | Plant response rating, Galium ([10]; 16 g ai/ha): 70 | Plant response rating, Galium ([10]; 31 g ai/ha): 75 | Plant response rating, Galium ([10]; 62 g ai/ha): 95 | Plant response rating, Galium ([10]; 125 g ai/ha): 100 | Plant response rating, Barley, Spring ([11]; 16 g ai/ha): 0 | Plant response rating, Barley, Spring ([11]; 31 g ai/ha): 5 | Plant response rating, Barley, Spring ([11]; 62 g ai/ha): 30 | Plant response rating, Barley, Spring ([11]; 125 g ai/ha): 75 | Plant response rating, Wheat, Spring ([12]; 16 g ai/ha): 0 | Plant response rating, Wheat, Spring ([12]; 31 g ai/ha): 5 | Plant response rating, Wheat, Spring ([12]; 62 g ai/ha): 30 | Plant response rating, Wheat, Spring ([12]; 125 g ai/ha): 45 | Plant response rating, Kochia (kochia (Kochia scoparia); 16 g ai/ha): 15 | Plant response rating, Kochia (kochia (Kochia scoparia); 31 g ai/ha): 60 | Plant response rating, Kochia (kochia (Kochia scoparia); 62 g ai/ha): 60 | Plant response rating, Kochia (kochia (Kochia scoparia); 125 g ai/ha): 100 | Plant response rating, Field Poppy ([13]; 16 g ai/ha): 65 | Plant response rating, Field Poppy ([13]; 31 g ai/ha): 80 | Plant response rating, Field Poppy ([13]; 62 g ai/ha): 90 | Plant response rating, Field Poppy ([13]; 125 g ai/ha): 98 | Plant response rating, Chamomile ([14]; 16 g ai/ha): 20 | Plant response rating, Chamomile ([14]; 31 g ai/ha): 75 | Plant response rating, Chamomile ([14]; 62 g ai/ha): 75 | Plant response rating, Chamomile ([14]; 125 g ai/ha): 100 | Plant response rating, Pigweed ([15]; 16 g ai/ha): 98 | Plant response rating, Pigweed ([15]; 31 g ai/ha): 100 | Plant response rating, Pigweed ([15]; 62 g ai/ha): 100 | Plant response rating, Pigweed ([15]; 125 g ai/ha): 100 | Plant response rating, Oilseed Rape ([16]; 16 g ai/ha): 80 | Plant response rating, Oilseed Rape ([16]; 31 g ai/ha): 85 | Plant response rating, Oilseed Rape ([16]; 62 g ai/ha): 98 | Plant response rating, Oilseed Rape ([16]; 125 g ai/ha): 100 | Plant response rating, Oat, Wild (wild oat (Avenafatua); 16 g ai/ha): 15 | Plant response rating, Oat, Wild (wild oat (Avenafatua); 31 g ai/ha): 15 | Plant response rating, Oat, Wild (wild oat (Avenafatua); 62 g ai/ha): 20 | Plant response rating, Oat, Wild (wild oat (Avenafatua); 125 g ai/ha): 35
